Results taken from PMC10657792, “Downstream Allosteric Modulation of NMDA Receptors by 3-Benzazepine Derivatives” (Molecular Neurobiology, 2023).
Several values for one entry are separate records, joined by “and”; a condition that tells them apart may be missing. Equal entries are not always repeated.

Legend:
Type in all cases: cell-based
GluN1a wt/ GluN2B Q110A = GluN1a wt/ GluN2B Q110A (Rattus norvegicus, UniProt P35439+Q00960, Q110A); assay: TEVC recording in X. laevis oocytes, GluN2B mutant screening; details: fitted curve
GluN1b wt/ GluN2B wt = GluN1b wt/ GluN2B wt (Rattus norvegicus, UniProt P35439+Q00960); assay: TEVC recording in X. laevis oocytes in the presence of agonists and 200 µM spermine; details: agonists + 200 µM spermine; fitted curve
Experimental: The NMDAR was expressed in stage V and VI oocytes originated from X. laevis. Oocytes were provided by Ecocyte Bioscience (Dortmund, Germany), and equimolar amounts of wild-type and mutated GluN1 and GluN2B cRNA were injected (0.8 ng each). The oocytes were incubated in Barth’s solution, containing (mmol l^−1): 88 NaCl, 1 KCl, 0.4 CaCl2, 0.33 Ca(NO3)2, 0.6 MgSO4, 5 TRIS–HCl, 2.4 NaHCO3, supplemented with 80 mg l^−1 theophylline, 63 mg l^−1 benzylpenicillin, 40 mg l^−1 streptomycin, and 100 mg l^−1 gentamycin and maintained at 18 °C until usage. After injection, the oocytes were incubated for 5 days at 18 °C. Subsequently, the activity of the expressed NMDARs in the oocytes was recorded by two-electrode voltage clamp (TEVC).
The compounds were retrieved as 10 mM stock solutions in DMSO and were subsequently diluted with agonist solution and adjusted to 0.1% DMSO concentration. Inhibition of each compound was measured via TEVC in X. laevis oocytes at room temperature using a Turbo Tec 10CX amplifier (NPI electronic, Tamm, Germany), NI USB 6221 DA/AD Interface (National Instruments, Austin, USA), and GePulse Software (Dr. Michael Pusch, Genova, Italy). Ba^2+-Ringer, consisting of 10 mM HEPES, 90 mM NaCl, 1 mM KCl, and 1.5 mM BaCl2, adjusted to pH 7.4, was used for TEVC measurements. Agonist solution containing 10 µM glycine and 10 µM (S)-glutamate was prepared in Ba^2+-Ringer, and the measurements were performed at a holding potential of − 70 mV, using electrodes with a glass capillary filled with 3 M KCl and a resistance between 0.5 and 1.5 MΩ. […] Example traces for all recorded conditions can be found in Supplementary Figs. S2–S9.
TEVC data were analyzed using Ana (Dr. Michael Pusch, Genova, Italy), and statistics were performed using OriginPro 2020 (OriginLab Corporation, Northampton, USA). The inhibitory effect of each compound is calculated using the following equation: inhibition=1-Ic-Ih/Ia-Ih where Ih describes the current in the absence of agonists; Ia represents the steady-state current in the presence of the agonists; and Ic is defined as the steady-state after binding of agonist and compound. […] Data were statistically analyzed by one-way ANOVA and Tukey post-hoc mean comparison test in OriginPro 2020 (OriginLab Corporation, Northampton, USA). p values are indicated by * for p < 0.05, ** for p < 0.01, and *** for p < 0.001.
The NMDAR is probably modulated by polyamines such as spermine and spermidine in a similar way to exon 5 [22]. As described above, we recorded GluN1-1a/GluN2B and GluN1-1b/GluN2B expressing oocytes with 200 µM spermine and ascending concentrations of (R)-OF-NB1, to examine if the allosteric effects are mechanically in conjunction or can be potentiated. […]

GluN1-1b/GluN2B = target: T1, GluN1-1b/GluN2B (Rattus norvegicus, UniProt P35439+Q00960); assay: Single-channel patch clamp recordings (cell-attached) in CHO cells: open time, open channel probability; details: 1 µM compound, exon 5 present
T1 construct: eGFP; DsRed2 (C); expressed in transfected cells; host or cells: CHO cells
Experimental: (§1) Chinese hamster ovary (CHO) cells were co-transfected with GluN1-1a eGFP and GluN2B pDsRed2-N1 or GluN1-1b eGFP and GluN2B pDsRed2-N1. The constructs were a generous gift from Prof. Hollmann (Bochum, Germany). GluN1-1b eGFP was obtained by subcloning of GluN1-1b in eGFP using BssHII and BtrI. Single-channel patch clamp recordings were performed at room temperature using an Axopatch 200B amplifier (Molecular Devices, USA). The patch clamp experiments on cultured CHO cells were done using Clampex 10.7 software (Molecular Devices, USA). Single-channel recordings were performed in the cell-attached configuration. Borosilicate glass pipettes with a resistance of 2–3 MΩ were backfilled with internal solution, consisting of 125 mM NaCl, 3 mM KCl, 1.25 mM NaH2PO4, 0.85 mM CaCl2, and 20 mM HEPES, 100 nM (S)-glutamate, and 20 µM glycine, adjusted to pH 7.4. During the recordings, the cells were continuously flushed with external solution, consisting of 141 mM potassium gluconate, 2.5 mM NaCl, 11 mM EGTA, and 10 mM HEPES, adjusted to pH 7.4 by KOH. The antagonist solution was prepared by adding 1 µM (R)-OF-NB1. All solutions were adjusted to a DMSO concentration of 0.1%. NMDA currents were measured by clamping GluN1-1a/GluN2B or GluN1-1b/GluN2B wild-type expressing CHO cells at − 70 mV. […] Data analysis was performed and evaluated using Clampfit 10.7 (Molecular Devices, USA).

GluN1-1a/GluN2B = target: T2, GluN1-1a/GluN2B (Rattus norvegicus, UniProt P35439+Q00960); assay: as above; details: 1 µM compound, without exon 5
T2 construct: eGFP; DsRed2 (C); expressed in transfected cells; host or cells: CHO cells (constructs a gift from Prof. Hollmann, Bochum)
Experimental: as §1

GluN1a wt/ GluN2B N192A = GluN1a wt/ GluN2B N192A (Rattus norvegicus, UniProt P35439+Q00960, N192A); assay: TEVC recording in X. laevis oocytes, GluN2B mutant screening; details: for inhibition (%): GluN1-1a GluN2B N192A, single oocytes
Chain of GluN1a wt/ GluN2B N192A (Q00960 27-1482 N192A, other chains not shown): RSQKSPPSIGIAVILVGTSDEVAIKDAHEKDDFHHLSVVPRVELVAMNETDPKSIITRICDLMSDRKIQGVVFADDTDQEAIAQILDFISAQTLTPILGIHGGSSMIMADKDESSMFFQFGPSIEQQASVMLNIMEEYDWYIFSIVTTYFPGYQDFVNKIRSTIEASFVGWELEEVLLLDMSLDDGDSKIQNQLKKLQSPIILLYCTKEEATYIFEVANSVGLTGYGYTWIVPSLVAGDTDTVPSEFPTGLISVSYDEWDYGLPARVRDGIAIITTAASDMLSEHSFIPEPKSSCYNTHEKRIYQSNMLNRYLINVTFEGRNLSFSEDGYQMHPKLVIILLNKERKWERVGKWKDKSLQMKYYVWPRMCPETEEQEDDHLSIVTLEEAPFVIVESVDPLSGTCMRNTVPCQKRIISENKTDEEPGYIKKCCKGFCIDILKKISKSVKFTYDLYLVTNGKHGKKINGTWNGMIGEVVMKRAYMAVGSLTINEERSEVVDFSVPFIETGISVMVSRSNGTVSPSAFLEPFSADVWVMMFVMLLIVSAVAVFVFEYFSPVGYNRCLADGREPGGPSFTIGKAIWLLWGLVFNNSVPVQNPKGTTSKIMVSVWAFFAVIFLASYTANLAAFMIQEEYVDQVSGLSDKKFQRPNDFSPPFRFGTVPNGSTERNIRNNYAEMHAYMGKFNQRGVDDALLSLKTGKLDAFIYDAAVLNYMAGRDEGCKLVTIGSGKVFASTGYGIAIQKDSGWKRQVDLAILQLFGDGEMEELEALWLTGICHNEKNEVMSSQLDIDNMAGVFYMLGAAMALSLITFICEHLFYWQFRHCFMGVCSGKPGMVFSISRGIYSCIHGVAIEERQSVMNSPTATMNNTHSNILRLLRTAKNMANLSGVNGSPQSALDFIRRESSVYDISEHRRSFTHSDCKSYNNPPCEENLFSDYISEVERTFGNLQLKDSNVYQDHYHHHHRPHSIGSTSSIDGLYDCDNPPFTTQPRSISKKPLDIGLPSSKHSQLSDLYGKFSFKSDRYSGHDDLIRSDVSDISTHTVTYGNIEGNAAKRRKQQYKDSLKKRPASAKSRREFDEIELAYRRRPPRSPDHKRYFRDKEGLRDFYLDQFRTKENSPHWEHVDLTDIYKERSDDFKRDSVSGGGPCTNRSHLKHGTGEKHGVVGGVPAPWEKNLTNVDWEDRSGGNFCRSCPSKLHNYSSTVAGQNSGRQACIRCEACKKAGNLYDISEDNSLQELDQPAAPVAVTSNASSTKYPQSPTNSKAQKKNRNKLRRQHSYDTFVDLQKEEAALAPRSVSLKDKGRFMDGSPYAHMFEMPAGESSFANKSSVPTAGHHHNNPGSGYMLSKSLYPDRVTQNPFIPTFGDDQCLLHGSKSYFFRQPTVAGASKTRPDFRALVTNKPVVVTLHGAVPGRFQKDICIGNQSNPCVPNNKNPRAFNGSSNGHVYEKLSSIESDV

Chain of GluN1a wt/ GluN2B Q110A (Q00960 27-1482 Q110A, other chains not shown): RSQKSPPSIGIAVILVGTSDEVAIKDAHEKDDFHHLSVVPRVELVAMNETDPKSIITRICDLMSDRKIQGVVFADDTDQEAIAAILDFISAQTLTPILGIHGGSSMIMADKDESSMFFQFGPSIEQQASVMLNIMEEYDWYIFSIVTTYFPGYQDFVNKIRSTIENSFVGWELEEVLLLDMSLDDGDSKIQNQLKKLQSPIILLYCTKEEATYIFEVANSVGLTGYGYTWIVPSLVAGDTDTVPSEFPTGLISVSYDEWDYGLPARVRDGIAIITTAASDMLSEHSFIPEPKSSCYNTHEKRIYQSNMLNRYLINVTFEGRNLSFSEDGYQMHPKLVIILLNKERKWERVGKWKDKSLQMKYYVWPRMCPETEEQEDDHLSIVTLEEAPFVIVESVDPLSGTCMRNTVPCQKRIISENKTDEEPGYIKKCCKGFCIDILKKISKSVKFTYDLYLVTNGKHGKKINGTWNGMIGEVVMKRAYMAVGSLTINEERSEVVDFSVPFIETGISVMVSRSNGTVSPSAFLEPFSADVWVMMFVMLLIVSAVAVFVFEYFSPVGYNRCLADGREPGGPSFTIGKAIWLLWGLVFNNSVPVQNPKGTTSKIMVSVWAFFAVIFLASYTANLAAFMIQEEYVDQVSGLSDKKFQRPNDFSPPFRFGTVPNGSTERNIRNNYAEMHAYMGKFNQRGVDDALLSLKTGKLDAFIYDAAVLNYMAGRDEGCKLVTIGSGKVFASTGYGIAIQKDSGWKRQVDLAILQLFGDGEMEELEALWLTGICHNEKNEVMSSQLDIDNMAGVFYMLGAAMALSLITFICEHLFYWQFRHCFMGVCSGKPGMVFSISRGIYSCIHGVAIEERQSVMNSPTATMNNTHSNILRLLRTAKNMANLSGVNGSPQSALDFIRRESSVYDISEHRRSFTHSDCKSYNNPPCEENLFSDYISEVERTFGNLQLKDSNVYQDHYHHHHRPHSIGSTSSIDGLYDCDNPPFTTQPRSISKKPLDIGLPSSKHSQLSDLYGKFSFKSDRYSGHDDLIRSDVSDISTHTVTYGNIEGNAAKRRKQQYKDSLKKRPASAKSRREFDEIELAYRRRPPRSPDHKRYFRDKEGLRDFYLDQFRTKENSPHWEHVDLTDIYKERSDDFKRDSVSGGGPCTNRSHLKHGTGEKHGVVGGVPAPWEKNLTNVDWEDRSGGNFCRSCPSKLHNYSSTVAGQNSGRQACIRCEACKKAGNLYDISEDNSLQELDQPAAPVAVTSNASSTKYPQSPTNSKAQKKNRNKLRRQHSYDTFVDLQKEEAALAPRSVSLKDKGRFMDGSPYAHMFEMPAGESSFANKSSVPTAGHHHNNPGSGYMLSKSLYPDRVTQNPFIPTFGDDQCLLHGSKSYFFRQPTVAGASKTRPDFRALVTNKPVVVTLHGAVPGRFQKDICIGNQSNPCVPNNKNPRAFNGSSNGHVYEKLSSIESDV
Chain of GluN1b wt/ GluN2B wt (Q00960 27-1482, other chains not shown): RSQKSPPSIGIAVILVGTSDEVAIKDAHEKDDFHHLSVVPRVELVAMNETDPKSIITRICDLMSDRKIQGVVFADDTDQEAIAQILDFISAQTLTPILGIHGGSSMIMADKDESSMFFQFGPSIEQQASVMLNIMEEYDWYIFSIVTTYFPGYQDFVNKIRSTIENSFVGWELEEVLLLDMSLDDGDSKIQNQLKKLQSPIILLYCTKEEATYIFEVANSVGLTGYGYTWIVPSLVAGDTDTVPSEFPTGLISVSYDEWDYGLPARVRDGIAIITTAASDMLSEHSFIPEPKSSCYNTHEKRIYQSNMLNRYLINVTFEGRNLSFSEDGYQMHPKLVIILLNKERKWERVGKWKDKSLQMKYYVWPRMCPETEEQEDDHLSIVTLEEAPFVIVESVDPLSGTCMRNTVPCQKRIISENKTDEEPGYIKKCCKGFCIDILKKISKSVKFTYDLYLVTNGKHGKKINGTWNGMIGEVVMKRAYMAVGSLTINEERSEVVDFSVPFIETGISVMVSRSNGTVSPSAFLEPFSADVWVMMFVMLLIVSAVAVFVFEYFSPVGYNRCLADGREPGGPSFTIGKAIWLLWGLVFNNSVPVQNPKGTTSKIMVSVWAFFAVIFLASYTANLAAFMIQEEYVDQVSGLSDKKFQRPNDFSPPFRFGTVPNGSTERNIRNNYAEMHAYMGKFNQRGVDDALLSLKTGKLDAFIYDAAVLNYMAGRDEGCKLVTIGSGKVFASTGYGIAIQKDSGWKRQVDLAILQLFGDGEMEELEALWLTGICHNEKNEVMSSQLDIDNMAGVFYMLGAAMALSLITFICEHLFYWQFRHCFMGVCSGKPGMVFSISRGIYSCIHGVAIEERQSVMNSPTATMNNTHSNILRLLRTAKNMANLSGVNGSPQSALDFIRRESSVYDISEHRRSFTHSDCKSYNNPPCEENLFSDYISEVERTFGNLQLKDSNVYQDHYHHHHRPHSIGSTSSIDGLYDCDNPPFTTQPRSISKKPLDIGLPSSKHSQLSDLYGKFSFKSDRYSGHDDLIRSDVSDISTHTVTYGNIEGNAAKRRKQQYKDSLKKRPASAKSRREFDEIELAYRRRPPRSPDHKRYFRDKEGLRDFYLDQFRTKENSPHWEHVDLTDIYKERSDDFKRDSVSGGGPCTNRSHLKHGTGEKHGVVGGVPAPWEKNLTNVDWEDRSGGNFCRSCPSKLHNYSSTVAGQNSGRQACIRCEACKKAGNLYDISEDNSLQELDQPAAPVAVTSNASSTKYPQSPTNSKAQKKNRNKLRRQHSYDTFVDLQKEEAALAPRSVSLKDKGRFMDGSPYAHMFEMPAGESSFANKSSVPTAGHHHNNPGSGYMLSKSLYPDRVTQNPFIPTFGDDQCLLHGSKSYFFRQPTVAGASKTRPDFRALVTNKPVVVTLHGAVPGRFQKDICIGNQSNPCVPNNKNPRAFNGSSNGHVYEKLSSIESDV

- IC50 (GluN1a wt/ GluN2B Q110A; agonists 10 µM glycine + 10 µM (S)-glutamate): 210 nM
- Hill coefficient (GluN1a wt/ GluN2B Q110A): 5.4
- Hill coefficient (GluN1b wt/ GluN2B wt): 1.8
- IC50 (GluN1b wt/ GluN2B wt): 522 nM
- IC50 (GluN1a wt/ GluN2B N192A; agonists 10 µM glycine + 10 µM (S)-glutamate, fitted curve): 282 nM
- Hill coefficient (GluN1a wt/ GluN2B N192A; fitted curve): 0.4
Compound: Oc1ccc2c(c1)CCN(CCCCc1ccccc1F)C[C@@H]2O [(R)-OF-NB1]
- effect on open time of NMDAR (GluN1-1b/GluN2B): did not result in a significant reduction
- effect on open time of NMDAR (GluN1-1a/GluN2B): did not result in a significant reduction
- inhibition (%) (GluN1a wt/ GluN2B N192A; compound concentration 1 μM, 1 µM): 66.1572% and 79.6651% and 73.3591% and 75.5102% and 40.4665% and 73.3363% and 63.7681%
- inhibition (%) (GluN1a wt/ GluN2B N192A; compound concentration 10 μM, 10 µM): 77.2198% and 89.4737% and 79.5367% and 82.6531% and 48.1744% and 82.1493% and 73.43%
- inhibition (%) (GluN1a wt/ GluN2B N192A; compound concentration 30 μM, 30 µM): 83.1878% and 94.0191% and 84.556% and 89.7959% and 61.6633% and 86.6457% and 82.1256%
